Results from patent publication US11891386B2, “Indole compounds and their use” (ARIAGEN, INC., priority 2017, dated 2024).
Where two headings read alike, the source gives them in different places.

Columns and labels:
[1] = system: CYP1A1 in human HepG2 cells; assay: EROD assay (7-ethoxy-resorufin-O-deethylase), human HepG2 cells; type: cell-based; parameters: key to activity group based on EC50 values, in the order of increasing activity: (1) active; (2) more active; (3) most active; conditions: for activity group based on EC50 values, in the order of increasing activity: oxadiazole derivatives of ITE; for activity in the human EROD assay compared to ARI-001 / ARI-002, in words / EC50: human HepG2 cells; for EC50: EROD assay, 20 hours treatment
Experimental: (§1) CYP1A1 induction is under the control of the AhR signaling pathway. This Example describes an in vitro assay (7-ethoxy-resorufin-O-deethylase (EROD) assay) that evaluated the AhR modulating activities of the indole compounds described herein. In this assay, the indole compounds were incubated with human HepG2 cells or mouse Hepal-6 cells. The activity of CYP1A1 in the cells was measured by the conversion of substrate 7-ethoxyresorufin, with the readout being a fluorescence signal associated with the conversion product. The EC50 values of the indole compounds as well as the maximum […] induced by them in the assay were determined.
(§2) Human HepG2 cells were obtained from Sigma Aldrich (Catalog 85011430-1VL). Mouse Hepal-6 cells also were obtained from Sigma Aldrich (Catalog 92110305-1V).
(§3) Human HepG2 and Mouse Hepal-6 cells were grown to 60-80% confluency in tissue culture flasks, lifted with non-enzymatic cell dissociation solution (cell stripper), seeded in a 384-well plate at 5,000 cells per well, treated with the test compounds, and incubated for 20 hours overnight at 37° C. The treatment medium was removed and a solution of substrate 7-ethoxyresorufin (ETX) was added to initiate the reaction. The plate was incubated at 37° C. for 30 minutes. The reaction was subsequently terminated by adding tempered methanol. Fluorescent emission was measured at 590 nm with excitation at 530 nm in a FLEXSTATION III instrument (Molecular Devices).

[2] = system: CYP1A1 in mouse Hepal-6 cells; assay: EROD assay (7-ethoxy-resorufin-O-deethylase), mouse Hepa1-6 cells; type: cell-based; conditions: for EC50: EROD assay, 20 hours treatment
Experimental: as §1, §2, §3

[3] = In vivo pharmacokinetic study in Sprague-Dawley rats; conditions: rat; for bioavailability: Sprague-Dawley, plasma, po, 10 mg/kg; for % of Hepatisc Blood Flow: IV (2 mg/kg)
Experimental: This example describes pharmacokinetic (PK) studies of the various indole compounds described herein in rats, a rodent species widely used for pre-clinical toxicology evaluation. In the present studies, the test compounds were given to groups of Sprague-Dawley rats (N=3 in each group) intravenously (IV) at 2 mg/kg or orally (PO) at 10 mg/kg. IV doses were formulated in DMSO, while PO doses were formulated in a 50/50 mixture of PEG400 and Tween 80. Blood samples were collected at pre-dose and over a period of 24 hours post-dose. Plasma concentrations of the indole compounds were determined by HPLC.

[4] = PO (10 mg/kg) vs IV (2 mg/kg), read-out: F % (bioavailability)

Row | SMILES | activity group based on EC50 values, in the order of increasing activity ([1]; human EROD assay) | activity in the human EROD assay compared to ARI-001 / ARI-002, in words [1] | activity in the mouse EROD assay, in words [2] | also measured
1 | Cc1nnc(-c2csc(C(=O)c3c[nH]c4ccccc34)n2)o1 [ARI-060, (1H-indol-3-yl)(4-(5-methyl-1,3,4-oxadiazol-2-yl)thiazol-2-yl)methanone] | active | significantly more (about 4 to 900 times more) active than ARI-001 | – | –
2 | O=C(c1nc(-c2nnco2)cs1)c1c[nH]c2ccccc12 [ARI-056, (4-(1,3,4-oxadiazol-2-yl)thiazol-2-yl)(1H-indol-3-yl)methanone] | active | significantly more (about 4 to 900 times more) active than ARI-001 | – | –
3 | NCc1nnc(-c2csc(C(=O)c3c[nH]c4c(F)cccc34)n2)o1 [ARI-145, (4-(5-(aminomethyl)-1,3,4-oxadiazol-2-yl)thiazol-2-yl)(7-fluoro-1H-indol-3-yl)methanone] | more active | significantly more (about 4 to 900 times more) active than ARI-001 | most active among the tested oxadiazole compounds | –
4 | CCC(=O)c1csc(C(=O)c2c[nH]c3cc(F)c(F)cc23)n1 [ARI-149, 1-(2-(5,6-difluoro-1H-indole-3-carbonyl)thiazol-4-yl)propan-1-one] | – | – | – | EC50 [2]: 0.6 nM; EC50 [1]: 19.2 nM; bioavailability [3, 4]: 6.8%; bioavailability ([3]; PO, read-out: absolute oral bioavailability, % of ARI-002): 62%; IV AUCinf, times higher than ARI-002 ([3]; IV): 2.3 times; plasma clearance, % of that of ARI-002 ([3]; IV): 50%; % of Hepatisc Blood Flow [3]: 13%; PO AUCinf, times higher than that of ARI-002 ([3]; PO): about 1.4 times
5 | Nc1nnc(-c2csc(C(=O)c3c[nH]c4cc(Cl)c(Cl)cc34)n2)o1 [ARI-120, (4-(5-amino-1,3,4-oxadiazol-2-yl)thiazol-2-yl)(5,6-dichloro-1H-indol-3-yl)methanone] | most active | significantly more (about 4 to 900 times more) active than ARI-001 | most active among the tested oxadiazole compounds | –
6 | COC(=O)c1csc(C(=O)c2c[nH]c3ccc(F)cc23)n1 [ARI-066, methyl 2-(5-fluoro-1H-indole-3-carbonyl)thiazole-4-carboxylate] | – | less active | less active | –
7 | Nc1nnc(-c2csc(C(=O)c3c[nH]c4ccccc34)n2)s1 [ARI-090, (4-(5-amino-1,3,4-thiadiazol-2-yl)thiazol-2-yl)(1H-indol-3-yl)methanone] | more active | significantly more (about 4 to 900 times more) active than ARI-001 | – | –
8 | Nc1nnc(-c2csc(C(=O)c3c[nH]c4ccc(F)cc34)n2)o1 [ARI-148, (4-(5-amino-1,3,4-oxadiazol-2-yl)thiazol-2-yl)(5-fluoro-1H-indol-3-yl)methanone] | more active | significantly more (about 4 to 900 times more) active than ARI-001 | – | –
9 | CCC(=O)c1csc(C(=O)c2c[nH]c3ccc(Cl)cc23)n1 [ARI-067, 1-(2-(5-chloro-1H-indole-3-carbonyl)thiazol-4-yl)propan-1-one] | – | less active | less active | bioavailability [3, 4]: 3.5%; % of Hepatisc Blood Flow [3]: 350%
10 | CCC(=O)c1csc(C(=O)c2c[nH]c3cccc(F)c23)n1 [ARI-142, 1-(2-(4-fluoro-1H-indole-3-carbonyl)thiazol-4-yl)propan-1-one] | – | less active than ARI-002 | – | EC50 [2]: 12.8 nM; EC50 [1]: 64.8 nM
11 | CNC(=O)c1csc(C(=O)c2c[nH]c3ccccc23)n1 [ARI-004] | – | less active | less active | bioavailability [3, 4]: 33.6%; % of Hepatisc Blood Flow [3]: 189%
12 | CNC(=O)c1csc(C(=O)c2c[nH]c3ccc(Cl)cc23)n1 [ARI-049, 2-(5-chloro-1H-indole-3-carbonyl)-N-methylthiazole-4-carboxamide] | – | less active | less active | –
13 | CCC(=O)c1csc(C(=O)c2c[nH]c3c(F)cccc23)n1 [ARI-140, 1-(2-(7-fluoro-1H-indole-3-carbonyl)thiazol-4-yl)propan-1-one] | – | – | less active than ARI-002 | EC50 [2]: 19.5 nM; EC50 [1]: 0.7 nM
14 | Nc1nnc(-c2csc(C(=O)c3c[nH]c4c(F)cccc34)n2)o1 [ARI-118, (4-(5-amino-1,3,4-oxadiazol-2-yl)thiazol-2-yl)(7-fluoro-1H-indol-3-yl)methanone] | most active | significantly more (about 4 to 900 times more) active than ARI-001 | most active among the tested oxadiazole compounds | times more active than ARI-001 ([1]; human EROD assay): about 930 times; times more active than ARI-002 ([1]; human EROD assay): about 13 times; bioavailability [3, 4]: 0.2%; IV PK profile compared to ARI-001, ARI-002, and ARI-004, in words ([3]; IV): improved IV PK profiles; % of Hepatisc Blood Flow [3]: 17%
15 | COC(=O)c1csc(C(=O)c2c[nH]c3ccc(Cl)cc23)n1 [ARI-055, methyl 2-(5-chloro-1H-indole-3-carbonyl)thiazole-4-carboxylate] | – | less active | less active | –
16 | CNC(=O)c1csc(C(=O)c2c[nH]c3ccc(F)cc23)n1 [ARI-065, 2-(5-fluoro-1H-indole-3-carbonyl)-N-methylthiazole-4-carboxamide] | – | less active | less active | –
